The values below come from publication PMC12264554, “Application of preclinical absorption, distribution, metabolism, elimination in vitro techniques for the characterization and compound library optimization of novel antibiotic gallium salophen” (Drug Metabolism and Disposition, 2025).

SMILES strings stand for the structures. Read-outs that look alike come from different tables or passages of the source. A value given as a limit tells only on which side of the number the result lay.

Series [1] is described as follows: Microsomal clearance assay. In kind it is in vitro ADME, rat. Particulars: 2 μM, rat liver microsomes. How it is done: Library compounds were tested in triplicate at a concentration of 2 μM and incubated in 0.1 M potassium phosphate buffer containing 12 mM MgCl2 and 8 mM NADPH at pH 7.4 with either 0.5 mg/mL of Sprague–Dawley liver microsomes (Invitrogen). Samples were incubated for 0, 3, 7, 12, 20, and 30 minutes. At the designated time point, the incubation reaction was stopped by adding 100 μL of ACN containing 1 μM of either GaSal-4 or GaSal-5 as the internal standards. […] 7-Ethoxycoumarin (Sigma) was used as a positive control in this experiment. Intrinsic clearance (CLint) was calculated using eq. 2:(2) CLint=0.693/InVitroT1/2∗IncubationVolume/mgofmicrosomes∗45mgmicrosomes/gramofliver∗45gramsliver/kgofbodyweight
The average CLint ± SEM was determined for each compound for 2 replicates per time point.

A further series can be described thus: S9 clearance assay. Conditions: Sprague-Dawley, pH 7.4, S9 rat liver fraction. The series is classed as in vitro ADME. How it is done:
Select library compounds were tested in triplicate at a concentration of 2 μM and incubated in 0.1 M potassium phosphate buffer containing 12 mM MgCl2 and 8 mM NADPH at pH 7.4 with 2.5 mg/mL of Sprague–Dawley S9 (Invitrogen). Incubations contained a final concentration of 2.5 mM UDP glucuronic acid, 0.10 mM adenosine 3’-phosphate 5’-phosphosulfate, 0.5 mM acetyl CoA, and 50 μg/mg protein alamethicin. All co-factors were from Sigma. Samples were incubated for 0, 3, 7, 12, 20, and 30 minutes. At the designated time point, the incubation reaction was stopped by adding 100 μL of ACN containing 1 μM of either GaSal-4 or GaSal-5 as the internal standard. […] A hundred microliter of supernatant was taken for LC-MS/MS analysis. 7-Ethoxycoumarin (Sigma) was used as a positive control in this experiment. Clearance was calculated according to eq. 3:(3) CLint=0.693/InVitroT1/2∗IncubationVolume/mgofS9∗165mgS9/gramofliver∗45gramsliver/kgofbodyweight
The average CLint ± SEM was determined for each compound for 3 replicates per time point.

In the next series the target is HasA (Pseudomonas aeruginosa, UniProt G3XD33). Description: Kd determination by fluorescence quenching of apo-HasAp. Particulars: read-out: HasA Kd; apo-HasAp 1 μM, 20 mM sodium phosphate pH 7.4, 25 °C, one-site binding fit. How it is done:
Wild-type, full-length HasAp was prepared from freshly transformed Escherichia coli BL21(DE3) competent cells as previously described in 4 L of M9 media. Cell pellets were resuspended and lysed with an LM-20 microfluidizer at 18,000 psi. Lysate was clarified by centrifugation and applied to a Q-Sepharose column. HasAp was eluted over a gradient from 20 to 600 mM NaCl in 20 mM Tris-HCl (pH 7.5), and desired fractions determined by SDS-PAGE were pooled. Apo-HasAp was further purified on a Butyl Sepharose Fast Flow column equilibrated with 50 mM sodium phosphate buffer with 0.7 M ammonium sulfate (pH 7.0). Holo-HasAp and other proteins eluted within 2–3 bed volumes of 50 mM sodium phosphate containing 0.5 M ammonium sulfate. Apo-HasAp was then eluted with a linear gradient of sodium phosphate buffer (50–20 mM) containing ammonium sulfate (0.5–0 M). Fractions were analyzed again by SDS-PAGE, and the apo-HasAp was pooled, concentrated (Amicon stirred cell with Ultracel 10 kDa filter), and exchanged into 20 mM sodium phosphate buffer.
Binding affinities were determined using a BioTek Synergy H1 microplate reader in a black 96-well plate. Compounds were solvated in H2O in serial dilutions (100–0.39 μM). One micromolar solution of apo-HasAp 20 mM sodium phosphate buffer (pH 7.4, 25 °C) was titrated into the ligand of interest. Emission spectra were recorded (300–500 nm) after excitation at 280 nm. The decrease in maximum emission was plotted against the ligand concentration (accounting for dilution) and fit to one-site binding using GraphPad Prism v10.

A short description of series [2]: Experimental LogP by reverse-phase HPLC method. Conditions: extrapolated log kw. The series is classed as physicochemical. The text has this: LogP was experimentally determined using previously published reverse-phase high-performance liquid chromatography method, and this workflow was adapted using instrumentation described in the previous LC-MS/MS analysis section ([Coutinho et al, 2023]). Briefly, analogs were eluted using isocratic flow with an increasing percentage of organic solvent from 55% to 90% in increments of 5%. The change in the log of the retention factor, log k, was plotted against the fraction of organic solvent. This allowed for extrapolation to the y-intercept, which is when the fraction of organic in the system is zero, or log kw. The same workflow was applied to known compounds with a published logP value to establish a relationship between logP and log kw. This ratio was used to calculate the experimental logP from the log kw of the test compounds. The in silico prediction of logP values was obtained using an online calculator by Molinspiration Cheminformatics (molinspiration.com).

For a further series, the system named is Caco-2 cells. Nature of the series: Caco-2 permeability screening. The series is classed as in vitro ADME. Conditions: for Papp apical to basolateral / Papp basolateral to apical: 20 μM, 30 and 60 min, average ± SEM. The method, then: (§1) Caco-2 cells were received from American Type Culture Collection and certified mycoplasma free. Cells were seeded on transwell plates (CoStar, growth area 0.33 cm^2/well, polycarbonate membrane, 0.33 μm pore size) between passage 20 and 27 and then analyzed between 21 and 25 days after wells were seeded to ensure enterocyte-like differentiation. Before assessing permeability, cells were washed once with Hank’s Balanced Salt Solution buffer, pH 7.4, and then incubated at 37 °C for 30 minutes. Transepithelial electrical resistance (TEER) was measured after equilibration before the experiment using an epithelial volt-ohmmeter (EVOM, World Precision Instruments), and cells were used if TEER > 250 Ω × cm^2. Cells were dosed to measure permeability from basolateral and apical sides at a concentration of 20 μM of test compound and 50 μM of Lucifer yellow. Lucifer yellow was used as a “zero permeability” marker to monitor the integrity of cell barrier. Samples were taken at 0 and 60 minutes from the donor side, and samples were taken at 30 and 60 minutes from the receiver side; media was replenished after the 30-minute sample was taken from both chambers. A calibration curve was prepared by serial dilution using the dosing solution in a 1:5 dilution. […] Samples were prepared for LC-MS/MS analysis by taking 100 μL of sample, adding 1 μM internal standard (GaSal-4 or GaSal-5), and crashing with 400 μL of methanol. Samples were centrifuged at 3000 rpm at 4 °C for 30 minutes, 200 μL of supernatant was transferred to a new plate, and 100 μL of water was added to each sample. Samples were vortexed and analyzed by LC-MS/MS as described earlier. […] To preliminarily evaluate organic cation transporter 1 (OCT1) or P-glycoprotein (P-gp)-dependent transport, transport studies were conducted with and without a 1 μM “inhibitor cocktail” alongside GaSal. […] The Papp for basolateral to apical, Papp apical to basolateral, and efflux ratio were reported for each compound. In order to calculate Papp, the concentration in the sampled time point was determined from the calibration curve and then converted to μg based on the volume of the chamber (0.2 mL for apical, 1.0 mL for basolateral). […] The calculation of Papp was determined using eq. […] Data are presented as the average ± SEM for each compound analyzed as n = 3 on 2 different days with 2 different cell line passages, for n = 6 total. GaSal is n = 3 on 3 different cell line passages since this was used as a test compound for the inhibition cocktail experiments.
For orientation: Caco-2 monolayers are a common model of the intestinal barrier.

The conditions of series [3]: calculated B/P, cited from earlier work.
A short description of series [4]: Caco-2 permeability screening. In kind it is in vitro ADME. Particulars: human, Caco-2, pH 7.4, known drug standards. The method, then:
as §1

For another series, the system named is PL proteins. Particulars: 2012, cited from earlier work; for PL protein bound: ref Pike and Skuterud, 1982, Zhang et al.

Sequence of HasA (G3XD33 entry or part of it): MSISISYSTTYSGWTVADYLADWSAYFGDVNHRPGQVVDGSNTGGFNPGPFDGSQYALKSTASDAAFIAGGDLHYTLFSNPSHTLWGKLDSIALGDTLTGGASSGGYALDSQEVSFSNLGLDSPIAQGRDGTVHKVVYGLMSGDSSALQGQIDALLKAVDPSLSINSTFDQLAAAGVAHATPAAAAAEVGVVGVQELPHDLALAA

Broadly, the half-life is how long it takes for the measured level to halve. A lower half-life goes with rapid decline. Take `CCOc1ccc2ccc(=O)oc2c1` [7-ethoxycoumarin, 7-Ethoxycoumarin, reference compound]: the “concentration change over 30 minutes in microsomes” value in series [1] is “metabolized by the microsomes”. The half-life at 2 µM in “S9 clearance assay” (average ± SEM n = 3) is 25.2 ± 7.8 min. The CLint scaled at 2 μM in the series “S9 clearance assay” (average ± SEM n = 3, read-out: Predicted CLint (converted)) is 190 mL/min/kg.

A word on the Kd: it is the concentration at which binding is half-saturated. What is called logP is a log measure of how a compound divides between an organic and an aqueous phase. For the molecule `CN(C)CCOc1ccc(C=Nc2ccccc2N=Cc2ccc(OCCN(C)C)cc2O)c(O)c1.[Ga+3]` [GaSal-2], the Kd on HasA was found to be 1.2 ± 0.3 µM. The logP in series [2] is 3.7. Also, in the series with Caco-2 cells, the “Papp apical to basolateral” value is “Undetected” and the “Papp basolateral to apical” value is listed as “Undetected”.

For the molecule `CC(=Nc1ccccc1N=Cc1ccc(OCCN(C)C)cc1O)c1ccccc1O.[Ga+3]` [GaSal-7], the Kd at HasA came to 5 ± 0.9 µM. Moreover, in series [2], the logP was 3.27. Further, in the series with Caco-2 cells, the “Papp apical to basolateral” value is “Undetected” and the “Papp basolateral to apical” value is “Undetected”.

For `[Mn+2]` [Manganese], the “KRBC/PL (B/P ratio)” value in series [3] (ref (Smith et al., 2007)) is 0.2.

On to `CN(Cc1cnc2nc(N)nc(N)c2n1)c1ccc(C(=O)N[C@@H](CCC(=O)O)C(=O)O)cc1` [Methotrexate, reference compound], for which the efflux ratio at 60 min, 20 μM in series [4] (read-out: Efflux Ratio B to A/ A to B) was found to be 1.46. In addition, in series [4] (read-out: Papp Apical to Basolateral), the Papp A→B at 60 min, 20 μM worked out at 0.02 ± 0.001 ×10⁻⁶ cm/s. Moreover, the Papp B→A at 60 min, 20 μM in series [4] (read-out: Papp Basolateral to Apical) came to 0.03 ± 0.01 ×10⁻⁶ cm/s. Moreover, in the series on Caco-2 cells (Caco-2), the “Permeability Ranking” value is reported as “Not Permeable”. In the series with PL proteins (control compounds, ref Zhang et al), the expected protein binding was 50%.

As to `[Ni]` [Nickel], the “KRBC/PL (B/P ratio)” value in series [3] (ref (Cao et al., 2023)) is on record as 0.50.

As for `[Se]` [Selenium], in series [3] (ref (Cao et al., 2023)), the “KRBC/PL (B/P ratio)” value is given as 1.34.

Consider `[Sr+2]` [Strontium], for which the “KRBC/PL (B/P ratio)” value in series [3] (ref (Cao et al., 2023)) is on record as 0.42.

With `CN(C)CCC=C1c2ccccc2CCc2ccccc21` [amitriptyline], in the series with PL proteins, the PL protein bound is > 90%.

In the case of `CN(C)CCCN1c2ccccc2CCc2ccccc21` [imipramine], the PL protein bound with PL proteins is listed as > 90%.
